Assay [1] deals with E. coli IR60. Kind of assay: Meropenem MIC, CLSI broth microdilution. In kind it is cell-based. The following applies: inhibitor 10 μg/ml. Here is the method: (§1) CLSI, Wayne, Pa.) in the absence of each inhibitor or in its presence at the concentration stated. In each case the inhibitor solution was added to broth at 0.1% v/v to achieve the required final concentration; DMSO was used to dissolve inhibitors.
(§2) For initial evaluations of the in vitro cell based activity of indole carboxylates we used well characterized bacterial strains (e.g. K. pneumoniae 5055; E. coli ATCC 25713) transformed with broad host range plasmids (e.g. pSU18 and derivatives) encoding few metallo-β-lactamases produced using their physiological (integron) promoters. We also tested a clinical strain, IR60 in the initial studies.^8
IR60 is a clinically strain original from India.^8 IR60 is also a multiresistant clinical strain.

Assay [2] concerns K. pneumoniae B12 IMP-4. The experiment in a line: Meropenem MIC, clinically derived strains. The format is cell-based. The following applies: for Meropenem MIC in presence of inhibitor: inhibitor 10 μg/ml. As to the method:
as §1
(§3) The results shown in Table 2 reveal that compounds of formula (I) are active in cells, including clinically relevant bacterial strains. Further studies were carried out to determine if compound of formula (I) potentiates BLA activity in clinically derived strains containing IMP-4, […] or NDM-1, which are the most commonly observed MBLs in clinical isolates.

The test system of assay [3] is K. pneumoniae B19 IMP-4. The experiment in a line: Meropenem MIC, clinically derived strains. In kind it is cell-based. To be noted: for Meropenem MIC in presence of inhibitor: inhibitor 10 μg/ml. Here is the method: as §1, §3
Assay [4] relates to K. pneumoniae 5055 IMP-1. Kind of assay: Meropenem MIC, clinically derived strains. The format is cell-based. To be noted: for Meropenem MIC in presence of inhibitor: inhibitor 10 μg/ml. As to the method:
as §1, §3

For assay [5], the system named is K. pneumoniae A34 VIM-4. Kind of assay: Meropenem MIC, clinically derived strains. In kind it is cell-based. To be noted: for Meropenem MIC in presence of inhibitor: inhibitor 10 μg/ml. As to the method: as §1, §3
Assay [6] has as its system K. pneumoniae IR16 NDM-1. The experiment in a line: Meropenem MIC, clinically derived strains. The format is cell-based. To be noted: for Meropenem MIC in presence of inhibitor: inhibitor 10 μg/ml. As to the method: as §1, §3
The subject of assay [7] is E. coli EC10 NDM-1. The experiment in a line: Meropenem MIC, clinically derived strains. The format is cell-based. The following applies: inhibitor 10 μg/ml. As to the method: as §1
In assay [8] the target is IMP-1 (Imipenemase-1) (Serratia marcescens, UniProt P52699). The experiment in a line: Enzyme inhibition assay, IMP-1. In kind it is biochemical. The following applies: for IC50: read-out: pIC50 IMP-1 (converted). As to the method:
(§4) The biological activity of the compounds of the present invention was tested using standard assay protocols.^7 The following representative enzymes NDM-1 (New Delhi metallo-β-lactamase-1), IMP-1 (Imipenemase-1) and VIM-2 (Veronese metallo-β-lactamase-2) were selected from different clinically relevant B1 metallo-β-lactamases.

In assay [9] the target is NDM-1 (New Delhi metallo-β-lactamase-1) (Klebsiella pneumoniae, UniProt C7C422). Kind of assay: Enzyme inhibition assay, NDM-1. The following applies: for IC50: read-out: pIC50 NDM-1 (converted). The format is biochemical. Here is the method: as §4
Chain of NDM-1 (New Delhi metallo-β-lactamase-1) (C7C422 29-270, looked up, species assumed): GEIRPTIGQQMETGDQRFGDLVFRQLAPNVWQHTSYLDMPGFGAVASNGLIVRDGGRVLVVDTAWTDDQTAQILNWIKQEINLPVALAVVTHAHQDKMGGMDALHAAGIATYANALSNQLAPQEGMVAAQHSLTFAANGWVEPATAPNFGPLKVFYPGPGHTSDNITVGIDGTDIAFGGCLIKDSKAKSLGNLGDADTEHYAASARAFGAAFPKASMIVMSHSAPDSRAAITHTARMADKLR
Assay [10] addresses VIM-2 (Veronese metallo-β-lactamase-2) (Escherichia coli, UniProt Q5U7L7). The experiment in a line: Enzyme inhibition assay, VIM-2. The following applies: for IC50: read-out: pIC50 VIM-2 (converted). In kind it is biochemical. Here is the method: as §4
For assay [11], the system named is K. pneumoniae 5055 + NDM-1. Kind of assay: Meropenem MIC, CLSI broth microdilution. In kind it is cell-based. To be noted: inhibitor 10 μg/ml. Here is the method: as §1, §2
The test system of assay [12] is K. pneumoniae 5055 (control). The experiment in a line: Meropenem MIC, CLSI broth microdilution. In kind it is cell-based. To be noted: for Meropenem MIC in presence of inhibitor: inhibitor 10 μg/ml. As to the method: as §1, §2
In general terms: Broth dilution looks for growth in wells or tubes with falling amounts of substance.

Assay [13] deals with E. coli 25922 (control). Kind of assay: Meropenem MIC, CLSI broth microdilution. In kind it is cell-based. The following applies: inhibitor 10 μg/ml. As to the method:
as §1, §2

Assay [14] deals with K. pneumonia strain containing most clinically significant MBLs. Kind of assay: Screening against K. pneumonia strain containing MBLs, overall statement. In kind it is cell-based. The following applies: Table 4. Here is the method: as §1

Chain of IMP-1 (Imipenemase-1) (P52699 19-246, looked up, species assumed): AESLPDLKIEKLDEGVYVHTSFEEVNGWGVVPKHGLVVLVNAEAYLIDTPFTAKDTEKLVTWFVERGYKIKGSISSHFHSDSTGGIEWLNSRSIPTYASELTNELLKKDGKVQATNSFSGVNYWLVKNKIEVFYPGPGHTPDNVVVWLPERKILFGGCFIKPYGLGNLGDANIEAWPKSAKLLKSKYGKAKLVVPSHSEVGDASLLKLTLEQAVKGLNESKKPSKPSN

On to `Cc1cccc2c(-c3ccc(S(N)(=O)=O)cc3)c(C(=O)O)[nH]c12` [Example 6, 7-methyl-3-(4-sulfamoylphenyl)-1H-indole-2-carboxylic acid], for which the Meropenem MIC in presence of inhibitor in assay [1] is below 0.25 mg/L; in assay [2], 16 mg/L; in [3], 8 mg/L; in assay [4], 8 mg/L; in assay [5], 16 mg/L; in [6], 2 mg/L. The Meropenem MIC in presence of inhibitor in [7] was 8 mg/L; in [11], 1 mg/L; in assay [12], below 0.25 mg/L; in assay [13], below 0.25 mg/L. In addition, the values for the IC50 in assay [8], in assay [9] and in assay [10] were 10 µM, 0.0158 µM and 0.316 µM, respectively.
On to `Cc1cccc2c(-c3ccc(S(C)(=O)=O)cc3)c(C(=O)O)[nH]c12` [Example 12, 7-methyl-3-(4-(methylsulfonyl)phenyl)-1H-indole-2-carboxylic acid], for which the Meropenem MIC in presence of inhibitor in assay [1] was below 0.5 mg/L; in [2], 8 mg/L; in assay [3] it was 8 mg/L; in assay [4], 8 mg/L; in assay [5], 16 mg/L; in assay [6], 1 mg/L. Also, the Meropenem MIC in presence of inhibitor was 8 mg/L in assay [7], 8 mg/L in assay [11], below 0.25 mg/L in assay [12] and below 0.25 mg/L in assay [13]. The IC50 in assay [8] was 12.6 µM; in assay [9], 0.0126 µM; in assay [10] it was 0.316 µM.
For `CC(C)c1cccc2c(-c3ccc(F)cc3)c(C(=O)O)[nH]c12` [Example 53, 3-(4-fluorophenyl)-7-isopropyl-1H-indole-2-carboxylic acid], the Meropenem MIC in presence of inhibitor is below 0.25 mg/L in [1]; 2 mg/L in assay [2]; 1 mg/L in assay [3]; 2 mg/L in [4]; 4 mg/L in [5]; 1 mg/L in assay [6]. Moreover, the Meropenem MIC in presence of inhibitor in assay [7] is 1 mg/L; in assay [11], 4 mg/L; in [12], below 0.25 mg/L; in [13] it was below 0.25 mg/L. Further, the figures for the IC50 in [8], in [9] and in assay [10] were 0.501 µM, 0.0126 µM and 0.0316 µM, respectively.
Consider `CC(C)c1cccc2c(-c3cc(Cl)cc(Cl)c3)c(C(=O)O)[nH]c12` [Example 76, 3-(3,5-dichlorophenyl)-7-isopropyl-1H-indole-2-carboxylic acid], for which the “activity against all the MBLs” value in assay [14] was “good activity”. In addition, the IC50 in assay [8] was 0.0158 µM; in assay [9] it was 0.00794 µM; in assay [10], 0.00398 µM.
For `Cc1noc(C)c1-c1c(C(=O)O)[nH]c2c(C)cccc12` [Example 117, 3-(3,5-dimethylisoxazol-4-yl)-7-methyl-1H-indole-2-carboxylic acid], the results for the IC50 in assay [8], in assay [9] and in assay [10] were above 100 µM, 1.26 µM and 0.2 µM, respectively.
In the case of `Cc1ccc2c(-c3ccc(F)cc3)c(C(=O)O)[nH]c2c1` [Example 119, 3-(4-fluorophenyl)-6-methyl-1H-indole-2-carboxylic acid], the results for the IC50 in assay [8], in assay [9] and in assay [10] were 79.4 µM, 2 µM and 15.8 µM, respectively.
In the case of `Cc1cccc2c1cc(C(=O)O)n2-c1ccc(F)cc1` [Example 120, 1-(4-fluorophenyl)-4-methyl-1H-indole-2-carboxylic acid], the values for the IC50 in assay [8], in assay [9] and in assay [10] were above 100 µM, above 20 µM and 31.6 µM, respectively.
On to `CC(C)NC(=O)c1[nH]c2c(C(C)C)cccc2c1-c1ccc(S(=O)(=O)N(C)C)cc1` [Example 123, 3-(4-(N,N-dimethylsulfamoyl)phenyl)-N,7-diisopropyl-1H-indole-2-carboxamide], for which, in assay [8], the “pIC50 IMP-1” value is “N.I”. Also, in assay [9], the “pIC50 NDM-1” value is listed as “N.I”. Besides, the “pIC50 VIM-2” value in assay [10] was “N.I”.
With `CC(C)c1cccc2c(-c3ccc(S(=O)(=O)N(C)C)cc3)c(C(=O)Nc3nccs3)[nH]c12` [Example 124, 3-(4-(N,N-dimethylsulfamoyl)phenyl)-7-isopropyl-N-(thiazol-2-yl)-1H-indole-2-carboxamide], the “pIC50 IMP-1” value in assay [8] was “N.I”. The “pIC50 NDM-1” value in [9] is “N.I”. Further, the “pIC50 VIM-2” value in [10] is on record as “N.I”.
Take `CC(C)c1cccc2c(-c3ccc(S(=O)(=O)N(C)C)cc3)c(C(=O)Nc3ccccc3)[nH]c12` [Example 127, 3-(4-(N,N-dimethylsulfamoyl)phenyl)-7-isopropyl-N-phenyl-1H-indole-2-carboxamide]: the “pIC50 IMP-1” value in assay [8] is “N.I”. Further, the IC50 in [9] is 0.398 µM. Further, in assay [10], the “pIC50 VIM-2” value is reported as “N.I”.
On to `C[C@@H](O)[C@H]1C(=O)N2C(C(=O)O)=C(S[C@@H]3CN[C@H](C(=O)N(C)C)C3)[C@H](C)[C@H]12` [Meropenem, meropenem, reference compound], for which the Meropenem MIC in assay [2] (meropenem alone) came out at 16 mg/L; in assay [3] (meropenem alone), 16 mg/L; in assay [4] (meropenem alone), 16 mg/L; in assay [5] (meropenem alone), 64 mg/L; in assay [6] (meropenem alone), 16 mg/L. Moreover, the Meropenem MICs in assay [12] (meropenem alone) was below 0.25 µg/mL.

The values above are taken from patent publication US11439622B2 (OXFORD UNIVERSITY INNOVATION LIMITED, priority 2015, dated 2022).
